Values quoted from earlier work, collected in PubChem BioAssay AID1259409 (Chemical Carcinogenesis Research Information System (CCRIS), 2018).

Tested on: rodent chemically induced tumor inhibition, incidence and multiplicity
Test: CCRIS tumor inhibitor studies

SMILES: CC(C)(C)c1cc(COCc2cc(C(C)(C)C)c(O)c(C(C)(C)C)c2)cc(C(C)(C)C)c1O
- tumour outcome (control, treated, inhibition, significance) (Carcinogen: BENZO[A]PYRENE, 50-32-8, Dose [Inhibitor]: 0.03 MMOL/G OF DIET DAILY STARTING 7 D BEFORE AND CONTINUING THROUGH 3 D AFTER CARCINOGEN TREATMENT FOLLOWED BY OBSERVAT, Route [Inhibitor]: ORAL, Species: MOUSE, Strain/Sex: ICR/FEMALE, Target Tissue: Type of Lesion: FORESTOMACH: NEOPLASM, Dose [Carcinogen]: 1 MG IN 0.2 ML CORN OIL 2/WK FOR 4 WK, Promoter: NONE USED): 94%, 95%, -1%, not significant

SMILES: CC(C)C1CCC(O)CC1 (stereo not drawn)
- tumour outcome (control, treated, inhibition, significance) (Carcinogen: 7,12-DIMETHYLBENZ[A]ANTHRACENE, 57-97-6, Dose [Inhibitor]: 0, 12 NMOL PER REPEATED APPLICATION FOR 20 WK (STUDY DURATION: 20 WK), Route [Inhibitor]: DERMAL, Species: MOUSE, Strain/Sex: CD-1/FEMALE, Target Tissue: Type of Lesion: SKIN: TUMOR, Dose [Carcinogen]: 100 UG ONCE, Promoter: OKADAIC ACID, 78111-17-8): 87%, 50%, 43%, not calculated

SMILES: C#Cc1ccc2ccccc2c1
- tumour outcome (control, treated, inhibition, significance) (Carcinogen: 4-(METHYLNITROSAMINO)-1-(3-PYRIDYL)-1-BUTANONE, 64091-91-4, Dose [Inhibitor]: 0, 5 UMOL IN 0.1 ML CORN OIL ONCE 2 HR PRIOR TO CARCINOGEN DOSE (STUDY DURATION: 16 WK), Route [Inhibitor]: GAVAGE, Species: MOUSE, Strain/Sex: STRAIN-A/FEMALE, Target Tissue: Type of Lesion: LUNG: ADENOMA, Dose [Carcinogen]: 10 UMOL IN 0.1 ML SALINE ONCE, Promoter: NONE USED): 100%, 89%, 11%, not significant
- tumour outcome (control, treated, inhibition, significance) (Carcinogen: 7,12-DIMETHYLBENZ[A]ANTHRACENE, 57-97-6, Dose [Inhibitor]: 0, 3300 NMOL IN 0.2 ML ACETONE APPLIED TO BACK ONCE 5 MIN PRIOR TO CARCINOGEN DOSE (STUDY DURATION: 26 WK), Route [Inhibitor]: DERMAL, Species: MOUSE, Strain/Sex: SENCAR/FEMALE, Target Tissue: Type of Lesion: SKIN: PAPILLOMA, Dose [Carcinogen]: 10 NMOL IN 0.2 ML ACETONE APPLIED TO BACK ONCE): 100%, 96%, 4%, not calculated
- outcome (Carcinogen: 7,12-DIMETHYLBENZ[A]ANTHRACENE, 57-97-6, Dose [Inhibitor]: 0, 33000 NMOL IN 0.2 ML ACETONE APPLIED TO BACK ONCE 5 MIN PRIOR TO CARCINOGEN D (STUDY DURATION: 26 WK), Route [Inhibitor]: DERMAL, Species: MOUSE, Strain/Sex: SENCAR/FEMALE, Target Tissue: Type of Lesion: SKIN: PAPILLOMA, Dose [Carcinogen]: 10 NMOL IN 0.2 ML ACETONE APPLIED TO BACK ONCE.): 100%, 100%, 0, not calculated
- tumour outcome (control, treated, inhibition, significance) (Carcinogen: 7,12-DIMETHYLBENZ[A]ANTHRACENE, 57-97-6, Dose [Inhibitor]: 0, 66000 NMOL IN 0.2 ML ACETONE APPLIED TO BACK ONCE 5 MIN PRIOR TO CARCINOGEN DOSE (STUDY DURATION: 20 WK), Route [Inhibitor]: DERMAL, Species: MOUSE, Strain/Sex: SENCAR/FEMALE, Target Tissue: Type of Lesion: SKIN: PAPILLOMA, Dose [Carcinogen]: 10 NMOL IN 0.2 ML ACETONE APPLIED TO BACK ONCE.): 100%, 100%, 0%, not calculated
- outcome (Carcinogen: 7,12-DIMETHYLBENZ[A]ANTHRACENE, 57-97-6, Dose [Inhibitor]: 0, 66000 NMOL IN 0.2 ML ACETONE APPLIED TO BACK ONCE 5 MIN PRIOR TO CARCINOGEN DOSE (STUDY DURATION: 26 WK), Route [Inhibitor]: DERMAL, Species: MOUSE, Strain/Sex: SENCAR/FEMALE, Target Tissue: Type of Lesion: SKIN: PAPILLOMA, Dose [Carcinogen]: 10 NMOL IN 0.2 ML ACETONE APPLIED TO BACK ONCE.): 100%, 100%, 0, not calculated
- tumour outcome (control, treated, inhibition, significance) (Carcinogen: 7,12-DIMETHYLBENZ[A]ANTHRACENE, 57-97-6, Dose [Inhibitor]: 0, 132000 NMOL IN 0.2 ML ACETONE APPLIED TO BACK ONCE 5 MIN PRIOR TO CARCINOGEN DOSE (STUDY DURATION: 20 WK), Route [Inhibitor]: DERMAL, Species: MOUSE, Strain/Sex: SENCAR/FEMALE, Target Tissue: Type of Lesion: SKIN: PAPILLOMA, Dose [Carcinogen]: 10 NMOL IN 0.2 ML ACETONE APPLIED TO BACK ONCE.): 100%, 89%, 11%, not calculated
- tumour outcome (control, treated, inhibition, significance) (Carcinogen: BENZO[A]PYRENE, 50-32-8, Dose [Inhibitor]: 3300 NMOL IN 0.2 ML ACETONE APPLIED TO BACK ONCE 5 MIN PRIOR TO CARCINOGEN DOSE (STUDY DURATION: 26 WK), Route [Inhibitor]: DERMAL, Species: MOUSE, Strain/Sex: SENCAR/FEMALE, Target Tissue: Type of Lesion: SKIN: PAPILLOMA, Dose [Carcinogen]: 200 NMOL IN 0.2 ML ACETONE APPLIED TO BACK ONCE.): 100%, 95%, 5%, not calculated
- tumour outcome (control, treated, inhibition, significance) (Carcinogen: BENZO[A]PYRENE, 50-32-8, Dose [Inhibitor]: 33000 NMOL IN 0.2 ML ACETONE APPLIED TO BACK ONCE 5 MIN PRIOR TO CARCINOGEN DOSE (STUDY DURATION: 26 WK), Route [Inhibitor]: DERMAL, Species: MOUSE, Strain/Sex: SENCAR/FEMALE, Target Tissue: Type of Lesion: SKIN: PAPILLOMA, Dose [Carcinogen]: 200 NMOL IN 0.2 ML ACETONE APPLIED TO BACK ONCE.): 100%, 89%, 11%, not calculated
- tumour outcome (control, treated, inhibition, significance) (Carcinogen: BENZO[A]PYRENE, 50-32-8, Dose [Inhibitor]: 66000 NMOL IN 0.2 ML ACETONE APPLIED TO BACK ONCE 5 MIN PRIOR TO CARCINOGEN DOSE (STUDY DURATION: 20 WK), Route [Inhibitor]: DERMAL, Species: MOUSE, Strain/Sex: SENCAR/FEMALE, Target Tissue: Type of Lesion: SKIN: PAPILLOMA, Dose [Carcinogen]: 200 NMOL IN 0.2 ML ACETONE APPLIED TO BACK ONCE.): 75%, 74%, 1%, not calculated
- tumour outcome (control, treated, inhibition, significance) (Carcinogen: N-METHYL-N'-NITRO-N-NITROSOGUANIDINE, 70-25-7, Dose [Inhibitor]: 0, 33000 NMOL IN 0.2 ML ACETONE APPLIED TO BACK ONCE 5 MIN PRIOR TO CARCINOGEN DOSE (STUDY DURATION: 20 WK), Route [Inhibitor]: DERMAL, Species: MOUSE, Strain/Sex: SENCAR/FEMALE, Target Tissue: Type of Lesion: SKIN: PAPILLOMA, Dose [Carcinogen]: 2500 NMOL IN 0.2 ML ACETONE APPLIED TO BACK ONCE.): 78%, 85%, -9%, not calculated

SMILES: COc1ccc([SeH])cc1
- tumour outcome (control, treated, inhibition, significance) (Carcinogen: BENZO[A]PYRENE, 50-32-8, Dose [Inhibitor]: 0, 3.3 UMOL/G DIET BEGINNING 1 WK PRIOR TO CARCINOGEN TREATMENT AND CONTINUING FOR 1 WK POST CARCINOGEN TREATMENT FOLLOW, Route [Inhibitor]: ORAL, Species: MOUSE, Strain/Sex: CD-1/FEMALE, Target Tissue: Type of Lesion: FORESTOMACH: PAPILLOMA, Dose [Carcinogen]: 1 MG IN 0.2 ML CORN OIL 2/WK FOR 4 WK, Promoter: NONE USED): 85%, 75%, 12%, not significant

SMILES: CCCCNC(=O)/C=C(C)/C=C/C=C(C)/C=C/C1=C(C)CCCC1(C)C
- tumour outcome (control, treated, inhibition, significance) (Carcinogen: N-BUTYL-N-(4-HYDROXYBUTYL)NITROSAMINE, 3817-11-6, Dose [Inhibitor]: 1.5 MMOL/KG DIET DAILY FOR 133 D STARTING ONE WK AFTER THE FINAL CARCINOGEN DOSE (STUDY DURATION: 190 D), Route [Inhibitor]: ORAL, Species: MOUSE, Strain/Sex: BDF/MALE, Target Tissue: Type of Lesion: URINARY BLADDER: TRANSITIONAL CELL CARCINOMA, Dose [Carcinogen]: 7.5 MG 1/WK FOR 8 WK, Promoter: NONE USED): 21/100 (21%), 19/100 (19%), 10%, not significant
- tumour outcome (control, treated, inhibition, significance) (Carcinogen: N-BUTYL-N-(4-HYDROXYBUTYL)NITROSAMINE, 3817-11-6, Dose [Inhibitor]: 1.5 MMOL/KG IN DIET FOR 133 D STARTING 1 WK AFTER THE LAST CARCINOGEN DOSE (STUDY DURATION: 190 D), Route [Inhibitor]: ORAL, Species: MOUSE, Strain/Sex: DBF1/MALE, Target Tissue: Type of Lesion: URINARY BLADDER: TRANSITIONAL CELL CARCINOMA, Dose [Carcinogen]: 7.5 MG 1/WK FOR 8 WK, Promoter: NONE USED): 21/100 (21%), 19/100 (19%), 10%, not significant

SMILES: c1cc2c(cc1[C@H]1OC[C@@H]3[C@H]1CO[C@H]3c1ccc3c(c1)OCO3)OCO2
- tumour outcome (control, treated, inhibition, significance) (Carcinogen: 4-NITROQUINOLINE-N-OXIDE, 56-57-5, Dose [Inhibitor]: 0, 2.5 MG/100 ML DRINKING WATER (TOTAL WEEKLY DOSE 1.26 MG) FOR 25 WK BEGINNING 5 WK POST CARCINOGEN DOSE (STUDY DURATIO, Route [Inhibitor]: ORAL, Species: MOUSE, Strain/Sex: ICR/FEMALE, Target Tissue: Type of Lesion: LUNG: TUMOR, Dose [Carcinogen]: 0.3 MG ONCE, Promoter: GLYCEROL, 56-81-5): 87%, 47%, 46%, p<0.05
- tumour outcome (control, treated, inhibition, significance) (Carcinogen: 7,12-DIMETHYLBENZ[A]ANTHRACENE, 57-97-6, Dose [Inhibitor]: 0, 85 NMOL IN 0.1 ML ACETONE 2/WK FOR 20 WK APPLIED 1 HR PRIOR TO EACH PROMOTER DOSE (STUDY DURATION: 20 WK), Route [Inhibitor]: DERMAL, Species: MOUSE, Strain/Sex: ICR/FEMALE, Target Tissue: Type of Lesion: SKIN: PAPILLOMA, Dose [Carcinogen]: 100 UG IN 0.1 ML ACETONE ONCE, Promoter: 12-O-TETRADECANOYLPHORBOL-13-ACETATE, 16561-29-8): 100%, 85%, 15%, not calculated

SMILES: S=C=Nc1cccc2ccccc12
- tumour outcome (control, treated, inhibition, significance) (Carcinogen: 2-AMINO-3-METHYLIMIDAZO[4,5-B]PYRIDINE (PHIP) [105650-23-5), Dose [Inhibitor]: DIET, Route [Inhibitor]: 400 PPM ADMINISTERED FROM 42 TO 66 D OF AGE, Species: RAT, Strain/Sex: SPRAGUE-DAWLEY/FEMALE, Target Tissue: Type of Lesion: MAMMARY, CARCINOMA, Dose [Carcinogen]: 85 MG/KG BW 8 TIMES OVER 11 D, STARTING 1 WK AFTER ANIT FEEDING (STUDY DURATION: 24 WKS)): 56.3%, 6.7%, 88.1%, p<0.001
